According to BindingDB's records for doi:10.1016/j.bmc.2013.03.060 (Meijo University, 2013):

Molecular target: T1, Androgen receptor (Homo sapiens, UniProt P10275)
T1 sequence (P10275 whole entry): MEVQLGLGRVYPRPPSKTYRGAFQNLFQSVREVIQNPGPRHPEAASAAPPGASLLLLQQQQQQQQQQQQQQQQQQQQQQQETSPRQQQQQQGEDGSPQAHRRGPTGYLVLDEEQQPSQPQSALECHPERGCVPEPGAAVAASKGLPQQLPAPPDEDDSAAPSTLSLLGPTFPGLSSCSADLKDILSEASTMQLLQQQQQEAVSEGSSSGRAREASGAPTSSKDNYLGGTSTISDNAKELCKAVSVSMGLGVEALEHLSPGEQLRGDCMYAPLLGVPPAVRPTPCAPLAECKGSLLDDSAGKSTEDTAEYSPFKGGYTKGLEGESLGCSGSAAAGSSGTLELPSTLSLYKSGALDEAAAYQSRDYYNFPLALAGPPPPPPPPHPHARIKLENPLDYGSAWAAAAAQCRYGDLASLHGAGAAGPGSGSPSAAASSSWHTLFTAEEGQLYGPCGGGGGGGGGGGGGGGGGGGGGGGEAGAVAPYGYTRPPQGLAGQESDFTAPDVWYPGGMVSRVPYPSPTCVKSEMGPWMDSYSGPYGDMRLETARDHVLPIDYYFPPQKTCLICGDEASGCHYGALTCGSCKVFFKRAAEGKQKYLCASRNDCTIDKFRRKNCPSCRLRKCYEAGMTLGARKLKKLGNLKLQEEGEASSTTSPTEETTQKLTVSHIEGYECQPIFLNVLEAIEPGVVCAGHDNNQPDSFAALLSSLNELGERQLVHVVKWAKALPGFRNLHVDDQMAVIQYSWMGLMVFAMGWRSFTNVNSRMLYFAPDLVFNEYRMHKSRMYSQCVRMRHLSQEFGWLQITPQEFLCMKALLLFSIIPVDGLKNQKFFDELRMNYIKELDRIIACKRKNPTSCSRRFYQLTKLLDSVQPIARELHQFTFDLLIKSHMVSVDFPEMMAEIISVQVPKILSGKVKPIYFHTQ
Assay: Antagonist activity at human androgen receptor LBD expressed in human MDA-kb2 cells by luciferase reporter gene assay

| Compound | IC50 |
| --- | --- |
| CN(C)c1ccc(-c2cc(O)c3c(=O)cccc-3o2)cc1 | 851 nM |
| O=c1cccc2oc(-c3ccc(O)cc3)cc(O)c1-2 [5-hydroxy-2-(4-hydroxyphenyl)-4H-chromen-4-one] | 851 nM |
